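Cells were grown in 96-well plates and exposed to each compound for 48 hours at five concentrations; endpoints were interpolated linearly between bracketing concentrations, or set to the highest concentration if not reached. GI50 marks 50% less growth. TGI: concentration producing complete growth inhibition.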
Columns and labels:
Assay in all cases: growth of human tumour cells (NCI), 48 h
[1] = tested on: CCRF-CEM leukemia
[2] = tested on: A498 renal
[3] = tested on: SW-620 colon
[4] = tested on: MALME-3M melanoma
[5] = tested on: SN12C renal
[6] = tested on: IGROV1 ovarian
[7] = tested on: 786-0 renal
[8] = tested on: HCC-2998 colon
[9] = tested on: ACHN renal
[10] = tested on: SF-295 CNS
[11] = tested on: HCT-15 colon
[12] = tested on: SK-MEL-28 melanoma
[13] = tested on: UACC-257 melanoma
[14] = tested on: SK-MEL-5 melanoma
[15] = tested on: OVCAR-4 ovarian
[16] = tested on: SK-MEL-2 melanoma
[17] = tested on: MCF7 breast
[18] = tested on: NCI-H522 lung
[19] = tested on: SF-539 CNS
[20] = tested on: OVCAR-5 ovarian
[21] = tested on: KM12 colon
[22] = tested on: SNB-75 CNS
[23] = tested on: SK-OV-3 ovarian
[24] = tested on: U251 CNS
[25] = tested on: MDA-MB-435
[26] = tested on: HOP-92 NSCLC
[27] = tested on: SF-268 CNS

Question: Which TGI [1] does the source give for `C[CH2][Pb]([CH2]C)([CH2]C)[O]C(=O)COc1ccccc1` here?
Answer: The TGI was 4860 nM.

Question: What about the GI50 [2] of the same compound?
Answer: Its GI50 is 1750 nM.

Question: And the TGI [2]?
Answer: The TGI was 6610 nM.

Question: And the GI50 [3]?
Answer: Its GI50 is 641 nM.

Question: What about the TGI [3] of the same compound?
Answer: The TGI was 2470 nM.

Question: And the GI50 [4]?
Answer: The GI50 was 441 nM.

Question: What about the TGI [4] of the same compound?
Answer: Its TGI is 7110 nM.

Question: What about the GI50 [5] of the same compound?
Answer: The GI50 was 2390 nM.

Question: And the TGI [5]?
Answer: The TGI was 9610 nM.

Question: What about the GI50 [6] of the same compound?
Answer: The GI50 was 1640 nM.

Question: And the TGI [6]?
Answer: Its TGI is 6520 nM.

Question: What about the GI50 [7] of the same compound?
Answer: The GI50 was 2130 nM.

Question: What about the TGI [7] of the same compound?
Answer: The TGI was 5720 nM.

Question: And the GI50 [8]?
Answer: The GI50 was 1650 nM.

Question: And the TGI [8]?
Answer: The TGI was 3850 nM.

Question: And the GI50 [9]?
Answer: Its GI50 is 2510 nM.

Question: What about the TGI [9] of the same compound?
Answer: The TGI was 11300 nM.

Question: What about the GI50 [10] of the same compound?
Answer: The GI50 was 1510 nM.

Question: And the TGI [10]?
Answer: Its TGI is 3130 nM.

Question: What about the GI50 [11] of the same compound?
Answer: Its GI50 is 1980 nM.

Question: What about the TGI [11] of the same compound?
Answer: The TGI was 11600 nM.

Question: What about the GI50 [12] of the same compound?
Answer: The GI50 was 784 nM.

Question: And the TGI [12]?
Answer: Its TGI is 11000 nM.

Question: And the GI50 [13]?
Answer: The GI50 was 557 nM.

Question: What about the TGI [13] of the same compound?
Answer: Its TGI is 4750 nM.

Question: What about the GI50 [14] of the same compound?
Answer: The GI50 was 1190 nM.

Question: What about the TGI [14] of the same compound?
Answer: Its TGI is 2560 nM.

Question: What about the GI50 [15] of the same compound?
Answer: Its GI50 is 949 nM.

Question: And the TGI [15]?
Answer: The TGI was 4960 nM.

Question: What about the GI50 [16] of the same compound?
Answer: Its GI50 is 382 nM.

Question: And the TGI [16]?
Answer: The TGI was 1730 nM.

Question: And the GI50 [17]?
Answer: Its GI50 is 1770 nM.

Question: What about the TGI [17] of the same compound?
Answer: The TGI was 9340 nM.

Question: What about the GI50 [18] of the same compound?
Answer: Its GI50 is 562 nM.

Question: And the TGI [18]?
Answer: Its TGI is 2110 nM.

Question: What about the GI50 [19] of the same compound?
Answer: The GI50 was 1810 nM.

Question: What about the TGI [19] of the same compound?
Answer: The TGI was 4630 nM.

Question: And the GI50 [20]?
Answer: Its GI50 is 1740 nM.

Question: What about the TGI [20] of the same compound?
Answer: Its TGI is 4610 nM.

Question: What about the GI50 [21] of the same compound?
Answer: The GI50 was 1510 nM.

Question: And the TGI [21]?
Answer: The TGI was 5840 nM.

Question: And the GI50 [22]?
Answer: The GI50 was 1240 nM.

Question: What about the TGI [22] of the same compound?
Answer: Its TGI is 11300 nM.

Question: What about the GI50 [23] of the same compound?
Answer: The GI50 was 2080 nM.

Question: And the TGI [23]?
Answer: Its TGI is 6100 nM.

Question: And the GI50 [24]?
Answer: The GI50 was 1740 nM.

Question: What about the TGI [24] of the same compound?
Answer: Its TGI is 3890 nM.

Question: What about the GI50 [25] of the same compound?
Answer: Its GI50 is 214 nM.

Question: And the TGI [25]?
Answer: Its TGI is 502 nM.

Question: What about the GI50 [26] of the same compound?
Answer: Its GI50 is 390 nM.

Question: What about the TGI [26] of the same compound?
Answer: The TGI was 4100 nM.

Question: And the GI50 [27]?
Answer: Its GI50 is 1670 nM.

Question: What about the TGI [27] of the same compound?
Answer: Its TGI is 4540 nM.

From PubChem BioAssay (NCI)
